For data set [1], the target named is T1, GluA2Qflip (Rattus norvegicus, UniProt P19491).
T1 construct: expressed in transfected cells; host or cells: HEK-293S
The data set can be described thus: Whole-cell current recording, GluA2Qflip in HEK-293 cells. In kind it is cell-based. From the text:
(§1) The original cDNAs in pBlueScript encoding rat GluA1, 2 and 3 AMPA receptors and GluK2 kainate receptor were kindly provided by Steve Heinemann. The GluA4 DNA plasmid was kindly provided by Peter Seeburg. The GluK1 plasmid was kindly provided by Geoffrey Swanson. The cDNAs of all three NMDA receptor subunits were gifts from John Woodward. All DNA plasmids were propagated using Escherichia coli host (DH5α) and purified using QIAGEN DNA purification kits.
All of the receptors were transiently expressed in HEK-293S cell. HEK-293S cells were maintained in Dulbecco's modified Eagle's medium (DMEM) supplemented with 10% fetal bovine serum and 1% penicillin in a 37° C., 5% CO2, humidified incubator. Receptors were transiently transfected by using calcium phosphate or lipofectamine 2000 (Invitrogen). The DNA plasmids encoding green fluorescent protein (GFP) and T-antigen (TAg) were cotransfected in HEK-293 S cells. GFP was used as a transfection marker for cell recording, and TAg was cotransfected to potentiate the receptor expression at the single-cell level^6. Transfected cells were allowed to grow for 48 hour before they were used for recording.
The procedure for whole-cell current recording to assay the inhibitory property of an RNA aptamer is known to those of skill in the art and has been previously described^7. […] The extracellular buffer composition is described above (see “Receptor Preparation”). For recording of the NMDA channels, the intracellualr solution contained (in mM) 140 CsCl, 1 MgCl2, 0.1 EGTA, and 10 HEPES (pH 7.2 adjusted by […]), while the extracellular solution contained (in mM) 135 NaCl, 5.4 KCl, 1.8 CaCl2, 10 glucose and 5 HEPES (pH 7.2 adjusted by NaOH). In the extracellular buffer, 2 μM of glycine was added (glycine was the co-agonist of NMDA receptor)^2. All reagents including aptamer were dissolved in the corresponding extracellular buffer and used. […] The whole-cell current was recorded using an Axopatch-200B amplifier at a cutoff frequency of 2-20 kHz by a built-in, eight-pole Bessel filter and digitized at 5-50 kHz sampling frequency using a Digidata 1322A from Axon Instruments (Molecular Devices, Sunnyvale, Calif.). The pClamp 8 software (Molecular Devices) was used for data acquisition. All whole-cell recordings were at −60 mV and 22° C.
To deliver AG56 to a HEK-293 cell, a “Ψ”-shaped flow device was used. […] In all experiments reported in this study, a 6-second preincubation flow protocol was used for full aptamer preincubation. […] The corrected current amplitude was used for data analysis.
Determination of KI,app by the ratio of the current amplitude in the absence and presence of inhibitor or A/A(I)—see FIG. 5 in the text. Equ. 10a and 10b were derived based on one inhibitor binding to the receptor. KI, app is the apparent inhibition constant for the inhibitor; other terms have been defined previously.
Under this condition, the inhibition constant for the closed-channel conformation was determined from the ratio of the amplitude according to equ. 10a and 10b. Likewise, at a saturating ligand concentration (i.e., L>>K1), the majority of the receptors were in the open-channel state. Consequently, the inhibition constant associated with the open-channel conformation was measured. The basis of using the two ligand concentrations that corresponded to ˜4% and ˜96% fraction of the open-channel receptor form^7 to determine the corresponding inhibition constant was a putative difference in inhibition constant between the closed-channel and the open-channel conformation. At those low and high ligand concentrations^7, the apparent inhibition constants obtained were considered pertinent to the closed-channel and the open-channel conformations, respectively. Examples of using the current amplitude to determine the inhibition constant for an inhibitor include our previous study of two 2,3-benzodiazepine derivatives with the GluA2Qflip AMPA receptor^15.

The target in data set [2] is T1, GluA2Qflip. As to the kind of experiment: Homologous competitive binding assay (32P-labeled aptamer, membrane-bound receptor). How it is done:
Whether AG56 bound to the close-channel state or conformation, and if so, the affinity of binding were assayed by homologous competitive binding assay using ^32P-label^4. To do this, RNA was first dephosphorylated by using calf intestinal phosphatase (CIP), prior to the 5′-end ^32P-labeling^5. Labeled RNA was passed through a NucAway spin column (Applied Biosystem) to remove excess γ-^32P-ATP. Then, 1 μl of 10 nM of ^32P-labeled aptamer was mixed with 2 μg of yeast tRNA (Sigma) and a series of concentrations of unlabeled (cold) aptamer whose concentrations varied from 0-400 nM in the final reaction mix. The mixed aptamer sample was incubated first at 70° C. for 10 min and then at room temperature for 20 min, before mixed with the receptor. For receptor preparation, […] of the membrane-bound receptor was resuspended in 1× extracellular buffer with and without 1 mM of kainate (which corresponded to the open-channel state and the closed-channel state, respectively; for the latter, it corresponded to precisely the unliganded, closed-channel state). The final concentration for the receptor and for the hot aptamer, after mixing, was 0.4 nM and 0.1 nM, respectively. The mixture was incubated at 22° C. for 1 hour for binding. […] The radioactivity on the filter was quantified in a scintillation counter (Beckman LS6500). […]

A further data set has as its target T2, GluN1a/2B (Rattus norvegicus, UniProt P35439+Q00960).
T2 construct: expressed in transfected cells; host or cells: HEK-293S
As to the kind of experiment: Whole-cell current recording, NMDA receptor GluN1a/2B. Type of data set: cell-based.
Excerpt: as §1
All of the receptors were transiently expressed in HEK-293S cell. HEK-293S cells were maintained in Dulbecco's modified Eagle's medium (DMEM) supplemented with 10% fetal bovine serum and 1% penicillin in a 37° C., 5% CO2, humidified incubator. Receptors were transiently transfected by using calcium phosphate or lipofectamine 2000 (Invitrogen). The DNA plasmids encoding green fluorescent protein (GFP) and T-antigen (TAg) were cotransfected in HEK-293 S cells. […]
The procedure for whole-cell current recording to assay the inhibitory property of an RNA aptamer is known to those of skill in the art and has been previously described^7. […] The whole-cell current was recorded using an Axopatch-200B amplifier at a cutoff frequency of 2-20 kHz by a built-in, eight-pole Bessel filter and digitized at 5-50 kHz sampling frequency using a Digidata 1322A from Axon Instruments (Molecular Devices, Sunnyvale, Calif.). […]

T1 sequence (P19491 22-883 isoform P19491-2): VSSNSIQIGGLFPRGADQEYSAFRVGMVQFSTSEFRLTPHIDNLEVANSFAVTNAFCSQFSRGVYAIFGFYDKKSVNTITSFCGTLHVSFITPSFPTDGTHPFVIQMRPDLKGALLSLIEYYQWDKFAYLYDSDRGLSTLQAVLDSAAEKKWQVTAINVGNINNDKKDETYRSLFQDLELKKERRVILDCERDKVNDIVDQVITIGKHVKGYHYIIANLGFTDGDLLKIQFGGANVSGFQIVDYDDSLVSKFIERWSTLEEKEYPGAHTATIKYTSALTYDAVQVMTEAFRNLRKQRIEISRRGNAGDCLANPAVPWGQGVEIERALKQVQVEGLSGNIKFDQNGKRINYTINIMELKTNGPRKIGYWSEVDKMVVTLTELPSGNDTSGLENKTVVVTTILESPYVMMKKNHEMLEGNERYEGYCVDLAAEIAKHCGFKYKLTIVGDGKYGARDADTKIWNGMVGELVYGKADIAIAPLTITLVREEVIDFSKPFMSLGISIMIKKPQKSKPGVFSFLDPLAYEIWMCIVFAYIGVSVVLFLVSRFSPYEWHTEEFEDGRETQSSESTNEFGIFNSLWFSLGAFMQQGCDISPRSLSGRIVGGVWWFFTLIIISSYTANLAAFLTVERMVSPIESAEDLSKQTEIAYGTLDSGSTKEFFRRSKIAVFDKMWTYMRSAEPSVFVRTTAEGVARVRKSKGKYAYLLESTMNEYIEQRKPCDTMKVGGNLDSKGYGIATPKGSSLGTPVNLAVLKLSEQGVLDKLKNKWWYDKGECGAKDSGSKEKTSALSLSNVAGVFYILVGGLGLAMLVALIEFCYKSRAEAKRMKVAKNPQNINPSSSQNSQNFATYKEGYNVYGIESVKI
T2 sequence (Q00960 27-1482, other chains not shown): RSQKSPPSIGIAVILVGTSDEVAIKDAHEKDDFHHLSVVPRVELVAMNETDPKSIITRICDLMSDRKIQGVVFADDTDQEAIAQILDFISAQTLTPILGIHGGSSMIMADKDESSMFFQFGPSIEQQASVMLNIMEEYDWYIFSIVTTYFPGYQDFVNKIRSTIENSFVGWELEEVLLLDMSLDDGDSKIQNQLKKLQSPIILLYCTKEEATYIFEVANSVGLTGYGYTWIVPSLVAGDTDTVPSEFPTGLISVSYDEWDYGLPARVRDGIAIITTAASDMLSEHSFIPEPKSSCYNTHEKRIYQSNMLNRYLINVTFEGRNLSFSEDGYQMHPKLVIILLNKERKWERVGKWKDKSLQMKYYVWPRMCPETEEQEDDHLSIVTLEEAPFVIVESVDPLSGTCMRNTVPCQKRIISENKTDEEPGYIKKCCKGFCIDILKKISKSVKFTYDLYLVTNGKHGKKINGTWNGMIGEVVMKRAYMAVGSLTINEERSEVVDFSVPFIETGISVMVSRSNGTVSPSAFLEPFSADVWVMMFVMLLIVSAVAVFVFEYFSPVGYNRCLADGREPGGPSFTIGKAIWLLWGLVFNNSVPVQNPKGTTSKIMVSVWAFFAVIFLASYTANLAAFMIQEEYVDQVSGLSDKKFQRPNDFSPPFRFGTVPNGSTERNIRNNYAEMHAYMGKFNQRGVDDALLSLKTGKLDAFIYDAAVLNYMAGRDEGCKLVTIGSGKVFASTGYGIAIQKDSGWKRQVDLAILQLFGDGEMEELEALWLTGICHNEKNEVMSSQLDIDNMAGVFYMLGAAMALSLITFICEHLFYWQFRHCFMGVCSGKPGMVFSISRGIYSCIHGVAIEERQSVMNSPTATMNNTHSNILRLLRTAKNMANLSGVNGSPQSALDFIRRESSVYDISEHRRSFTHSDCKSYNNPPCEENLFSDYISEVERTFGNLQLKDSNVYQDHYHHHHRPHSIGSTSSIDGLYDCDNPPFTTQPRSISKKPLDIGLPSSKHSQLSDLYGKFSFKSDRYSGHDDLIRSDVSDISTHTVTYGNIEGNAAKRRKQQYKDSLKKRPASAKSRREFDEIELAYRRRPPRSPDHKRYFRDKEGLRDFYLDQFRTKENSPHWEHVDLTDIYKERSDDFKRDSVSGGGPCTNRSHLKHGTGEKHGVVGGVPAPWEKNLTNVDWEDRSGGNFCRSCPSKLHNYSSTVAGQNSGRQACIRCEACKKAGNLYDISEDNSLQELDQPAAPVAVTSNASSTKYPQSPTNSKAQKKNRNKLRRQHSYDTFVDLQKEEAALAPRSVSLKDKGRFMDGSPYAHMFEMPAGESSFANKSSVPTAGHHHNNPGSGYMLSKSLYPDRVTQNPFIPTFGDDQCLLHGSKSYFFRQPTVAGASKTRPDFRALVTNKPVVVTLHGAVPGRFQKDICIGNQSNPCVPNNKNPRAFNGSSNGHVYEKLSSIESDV

As a reminder, the Kd is the free concentration of one partner at which half of the binding sites on the other are occupied at equilibrium, for simple one-to-one binding. Low readings indicate a tighter complex, high ones a looser complex. As for “AG56: 56-nucleotide truncated version of AG1407, RNA aptamer (GGGAGAUUGUGAAGCGUAGGCUCGAGUUUGUCCCGCGAGCCAAAGAUUCCAGACCC; RNA, backbone not given here)”, the “inhibitory function of shorter versions of AG1407, based on A/A(I)” value in the data set with GluA2Qflip [1] (GluA2Qflip) was “functional sequence”. The “inhibition of the open-channel conformation” value with GluA2Qflip [1] (GluA2Qflip, high glutamate concentration) is listed as “selectively inhibited the open-channel”. Further, the “inhibition of the closed-channel conformation” value with GluA2Qflip [1] (GluA2Qflip, low glutamate concentration) is reported as “did not inhibit”. Also, the Ki with GluA2Qflip [1] (open-channel conformation of GluA2Qflip, 3 mM glutamate, read-out: inhibition constant) was found to be 950 ± 200 nM. Further, the Kd with GluA2Qflip [2] (open-channel conformation (1 mM kainate)) was found to be 80 ± 23 nM; in the data set with GluA2Qflip [2] (unliganded, closed-channel conformation (without kainate)), 68 ± 40 nM. Besides, the “effect on NMDA receptor channel” value in the data set with GluN1a/2B is listed as “did not affect”.

Values taken from US8748407B2 (The Research Foundation for the State University of New York, priority 2010, dated 2014).
